# According to ChEMBL document CHEMBL6153025, “Multidrug-resistant bacteria quorum-sensing inhibitors: A particular focus on Pseudomonasaeruginosa” (Eur J Med Chem, 2025):
# Experiments:
# [1] = test system: Pseudomonas aeruginosa; assay: Antibiofilm activity against Pseudomonas aeruginosa PA14 assessed as reduction in biofilm biomass production at 18 ug/ml relative to control; type: functional; design: scale not given: the % may be the effect or the level left; details: dose 18 µg/ml
# [2] = test system: Pseudomonas aeruginosa; assay: Antimicrobial activity against Pseudomonas aeruginosa PAO1 assessed as inhibition of bacterial growth measured for 18 hrs by CLSI-based broth microdilution method; type: functional
# [3] = test system: Bacillus subtilis; assay: Antibacterial activity against Bacillus subtilis; type: functional
# [4] = test system: Bacillus pumilus; assay: Antibacterial activity against Bacillus pumilus; type: functional
# [5] = test system: Staphylococcus aureus; assay: Antibacterial activity against Methicillin-sensitive Staphylococcus aureus; type: functional
# [6] = test system: Escherichia coli; assay: Antibacterial activity against Escherichia coli; type: functional
# [7] = test system: Pseudomonas aeruginosa; assay: Antibacterial activity against Pseudomonas aeruginosa; type: functional
# [8] = test system: Pseudomonas aeruginosa; assay: Antivirulence activity against Pseudomonas aeruginosa PAO1 assessed as reduction in pyocyanin level at 10 uM relative to control; type: functional; design: scale not given: the % may be the effect or the level left
# [9] = test system: Pseudomonas aeruginosa; assay: Antibiofilm activity against Pseudomonas aeruginosa PAO1 assessed as inhibition of biofilm formation at 100 uM relative to control; type: functional; design: scale not given: the % may be the effect or the level left
# [10] = test system: Pseudomonas aeruginosa; assay: Antivirulence activity in Pseudomonas aeruginosa PAO1 assessed as reduction in pyocyanin production at 10 uM incubated for 24 hrs by absorbance based analysis relative to control; type: functional; design: scale not given: the % may be the effect or the level left
# [11] = test system: Pseudomonas aeruginosa; assay: Antibacterial activity against Pseudomonas aeruginosa ATCC 15442 assessed as reduction in bacterial cell growth incubated for 24 hrs by two fold serial microdilution method; type: functional
# [12] = test system: Pseudomonas aeruginosa; assay: Antibacterial activity against Pseudomonas aeruginosa PAO1-L; type: functional, organism-based
# [13] = test system: Staphylococcus aureus; assay: Antibacterial activity against Methicillin-resistant Staphylococcus aureus; type: functional
# [14] = test system: Pseudomonas aeruginosa; assay: Anti-virulence effect in Pseudomonas aeruginosa PAO1 assessed as inhibition of rhamnolipid production at 10 uM relative to control; type: functional; design: scale not given: the % may be the effect or the level left
# [15] = test system: Pseudomonas aeruginosa; assay: Antibiofilm activity against Pseudomonas aeruginosa PAO1 assessed as inhibition of biofilm formation incubated for 24 hrs by crystal violet staining based assay; type: functional, organism-based; details: PAO1, 24 h
# [16] = test system: Pseudomonas aeruginosa; assay: Antibacterial activity against Pseudomonas aeruginosa PAO1 assessed as reduction in bacterial growth by broth microdilution method; type: functional, organism-based
# [17] = Inhibition of quorum sensing system in Pseudomonas aeruginosa PAO1
# [18] = test system: Pseudomonas aeruginosa; assay: Antimicrobial activity against Pseudomonas aeruginosa assessed as reduction in microbial growth; type: functional, organism-based
# [19] = test system: Pseudomonas aeruginosa; assay: Antibiofilm activity against Pseudomonas aeruginosa ATCC 27853 assessed as reduction in biofilm biomass at 16 ug/ml relative to control; type: functional; design: scale not given: the % may be the effect or the level left; details: dose 16 µg/ml
smiles,measurement,setting,value
COc1cc(/C=C/c2cncs2)c(C(=O)O)c(O)c1CC=C(C)C,Activity,[1],21.06%
COc1ccc(-c2coc3cc(O)cc(O)c3c2=O)cc1 [BIOCHANIN],MIC,[2],0.48 mg/L
COc1ccc(OCCCCCC(=O)NN2C(=O)CN(c3ccccc3O)C2=O)cc1,MIC,[3],> 512 mg/L
same,MIC,[4],> 512 mg/L
same,MIC,[5],> 512 mg/L
same,MIC,[6],> 512 mg/L
same,MIC,[7],> 512 mg/L
same,Activity,[8],61%
O=c1c(O[C@@H]2O[C@H](CO)[C@H](O)[C@H](O)[C@H]2O)c(-c2ccc(O)c(O)c2)oc2cc(O)cc(O)c12 [HYPEROSIDE],Activity,[9],18%
Clc1ccc2c(NCCCCCCCCNCc3cc4ccccc4s3)ccnc2c1,Activity,[10],97%
same,MIC,[11],> 2 µM
O=c1cc(-c2ccc(O)c(O)c2)oc2c([C@H]3C[C@@H](O)[C@H](O)[C@@H](CO)O3)c(O)cc(O)c12,Activity,[9],18%
COc1cc(/C=C/c2ccc(C#N)cc2F)c(C(=O)O)c(O)c1CC=C(C)C,Activity,[1],19.43%
N#CCc1ccc(OCC(F)Cn2cnc3ccc(Cl)cc3c2=O)cc1 (stereo not drawn),IC50,[12],4.3 µM
COc1ccc(OCCCCCCCC(=O)NNC(=O)Cn2c(=O)oc3ncccc32)cc1,MIC,[3],> 512 mg/L
same,MIC,[4],> 512 mg/L
same,MIC,[5],> 512 mg/L
same,MIC,[13],> 512 mg/L
same,MIC,[6],> 512 mg/L
same,MIC,[7],> 512 mg/L
same,Activity,[8],53.1%
same,Activity,[14],6.34%
O=C(CCCCCOc1ccc(C(F)(F)F)cc1)NN1C(=O)CN(c2ccccc2O)C1=O,MIC,[3],> 512 mg/L
same,MIC,[4],> 512 mg/L
same,MIC,[5],> 512 mg/L
same,MIC,[6],> 512 mg/L
same,MIC,[7],> 512 mg/L
same,Activity,[8],38.62%
O=c1cc(-c2ccc(O)c(O)c2)oc2cc(O)c([C@@H]3O[C@H](CO)[C@@H](O)[C@H](O)[C@H]3O)c(O)c12 [ISOORIENTIN],Activity,[9],18%
Clc1ccc2c(NCCCCCCCCNCc3ncc[nH]3)ccnc2c1,Activity,[10],97%
same,MIC,[11],> 2 µM
CCn1ccnc1,IC50,[15],0.4 µM
N#CCc1ccc(OCC(=O)Cn2cnc3ccc(Cl)cc3c2=O)cc1,IC50,[12],4.3 µM
N#CCc1ccc(OCC(O)Cn2cnc3ccc(Cl)cc3c2=O)cc1F (stereo not drawn),IC50,[12],6.4 µM
O=C(COc1ccc(C(=O)/C=C/c2ccccc2Cl)cc1)N[C@H]1CCOC1=O,MIC,[16],5 µM
O=Cc1ccc(O)c(O)c1 [PROTOCATECHUALDEHYDE],Activity,[9],18%
O=C(CNc1ccc(C(=O)/C=C/c2ccc(Br)cc2)cc1)N[C@@H]1CCOC1=O,IC50,[17],46.8 µM
COP(=O)(NCCCCOc1cc(O)c2c(=O)cc(-c3ccccc3)oc2c1)OC,IC50,[18],100 µM
COc1ccc(OCCCCCCC(=O)NNC(=O)Cn2c(=O)oc3ncccc32)cc1,MIC,[3],> 512 mg/L
same,MIC,[4],> 512 mg/L
same,MIC,[5],> 512 mg/L
same,MIC,[13],> 512 mg/L
same,MIC,[6],> 512 mg/L
same,MIC,[7],> 512 mg/L
same,Activity,[14],6.34%
COc1ccc(/C=C/C(=O)O)cc1OC,Activity,[19],15.79%
O=C(CCCCCOc1ccc(F)cc1)NN1C(=O)CN(c2ccccc2O)C1=O,MIC,[3],> 512 mg/L
same,MIC,[4],> 512 mg/L
same,MIC,[5],> 512 mg/L
same,MIC,[6],> 512 mg/L
same,MIC,[7],> 512 mg/L
same,Activity,[8],61%
O=C(CNc1ccc(C(=O)/C=C/c2ccccc2Cl)cc1)N[C@@H]1CCOC1=O,IC50,[17],67.8 µM
O=c1c(O[C@@H]2O[C@H](CO)[C@@H](O)[C@H](O)[C@H]2O)c(-c2ccc(O)c(O)c2)oc2cc(O)cc(O)c12 [ISOQUERCETIN],Activity,[9],18%
CCCCCCCCNc1ccnc2cc(Cl)ccc12,Activity,[10],80%
same,MIC,[11],> 2 µM
O=c1c(-c2ccc(O)cc2)coc2cc(O)ccc12 [DAIDZEIN],MIC,[2],45 mg/L
O=C(CNc1ccc(C(=O)/C=C/c2ccc(Br)cc2F)cc1)N[C@@H]1CCOC1=O,IC50,[17],26.5 µM
COc1cc(O)c(C(=O)O)c(/C=C/c2ccc(S(F)(F)(F)(F)F)cc2)c1,Activity,[1],18.95%
O=C(O)/C=C/c1ccc(O)c(O)c1 [CAFFEIC ACID],Activity,[19],33%
CC(C)OP(=O)(NCCCCOc1cc(O)c2c(=O)cc(-c3ccccc3)oc2c1)OC(C)C,IC50,[18],100 µM
COc1cc(/C=C/c2cccc3cccnc23)c(C(=O)O)c(O)c1CC=C(C)C,Activity,[1],35.61%
N#CCc1ccc(OCC(O)Cn2cnc3ccc(Cl)cc3c2=O)c(F)c1 (stereo not drawn),IC50,[12],2.2 µM
FC(F)(F)c1ccc(CNCCCCCCCCNc2ccnc3cc(Cl)ccc23)cc1,Activity,[10],97%
same,MIC,[11],> 2 µM
Clc1ccc2c(NCCCCCCCCNCc3cc4ccccc4o3)ccnc2c1,Activity,[10],97%
same,MIC,[11],> 2 µM
CCCCCCCn1ccnc1,IC50,[15],3.29 µM
